# According to US9340536B2, “Multicomponent crystals comprising dasatinib and selected co-crystal formers” (BASF SE, priority 2012, dated 2016):
# Key:
# [1] = Aqueous solubility determination (suspension in pure water, HPLC); settings: 25 °C
# Method: Solubility Determinations:
# Solubility determinations were carried out in pure water at 25±2° C. Suspensions with about 10 mg co-crystal in 0.5 mL water were prepared an equilibrated for two hours before the solution phase was filtered off and tested by HPLC.
# HPLC was carried out on an Agilent 1100 HPLC chromatograph equipped with a UV-vis detection unit. […] The column type used was a Waters XTerra MS C18, 250×4.6 mm, 5 μm (FK-CC14). The method as referenced above is an isocratic method using an aqueous ammonium acetate/acetic acid and methanol with a ratio of 55/45. The applied flow rate was 1.0 mL per minute, the injection volume was 20 microliter and the detection wavelength was 321 nm.
# [2] = estimated by Roy et al., Cryst. Growth & Design 2012 (12), 2122-2126; cited from earlier work
"solubility at 2 h ([1]; pure water, thermodynamic from solid) [µg/mL]",solubility [1] [µg/mL],SMILES,ratio of the equilibrium solubility of anhydrous Dasatinib free base to Dasatinib monohydrate free base [2]
0.36,,"Cc1nc(Nc2ncc(C(=O)Nc3c(C)cccc3Cl)s2)cc(N2CCN(CCO)CC2)n1 [Dasatinib free base monohydrate, N-(2-chloro-6-methylphenyl)-2-[[6-[4-(2-hydroxyethyl)-1-piperazinyl]-2-methyl-4-pyrimidinyl]amino]-5-thiazolecarboxamide]",
,~0.9,"Cc1nc(Nc2ncc(C(=O)Nc3c(C)cccc3Cl)s2)cc(N2CCN(CCO)CC2)n1 [Dasatinib free base anhydrous form, N-(2-chloro-6-methylphenyl)-2-[[6-[4-(2-hydroxyethyl)-1-piperazinyl]-2-methyl-4-pyrimidinyl]amino]-5-thiazolecarboxamide]",about 2.4
